# Where a name gives a salt, the structure may show the parent alone. Read-outs that look alike come from different tables or passages of the source.
# Experiments:
# [1] = target: ERα_LBD(GST) (Homo sapiens (Human), UniProt P03372); test: IC50 measurements for binding to ERα_LBD (GST), LanthaScreen TR-FRET ERα competitive binding assay; settings: 4 nM ERα_LBD(GST), 3 nM Fluormone ES2 Green tracer, 60 min; read-out: ERα HTRF IC50
# Method: • 1. ERα_LBD(GST) protein: 4 nM • 2. Tb Anti-GST: 2 nM • 3. Fluormone ES2 Green tracer: 3 nM • 4. Incubation time: 60 min • 5. DMSO: 1% • 6. Assay buffer: Adding 1M DTT to Nuclear receptor Buffer K for final 5 mM DTT. • 7. ZPE: 1% DMSO • 8. HPE: 1 μM ARV_471 • 9. LanthaScreen® TR-FRET ERα Competitive Binding Assay (ThermoFisher, #A15887)
# • 1) Cherry pick 2 μL 10 mM compound stock to column 1 of a 384 intermediate plate • 2) Add 18 μL DMSO to column 1 to dilute compound to 1 mM. • 3) Transfer 10 μL 1 mM compound to column 1 of a LDV plate. • 4) Add 6 μl DMSO to column 2-10 of the LDV plate. • 5) Compounds undergo 3-fold serial dilution (3 μL+6 μL) in DMSO. • 6) Transfer 120 nL compound solution to assay plate. • ZPE: 120 nL 100% DMSO
# Prepare complete nuclear receptor buffer K by adding 1 M DTT to nuclear receptor buffer K for a final concentration of 5 mM DTT. Complete nuclear receptor buffer K must be prepared fresh daily. Prepare 2X protein solution using complete nuclear receptor buffer K containing 8 nM ERα_LBD(GST) and 4 nM Tb Anti-GST. Then, prepare 2× Fluormone ES2 Green tracer (6 nM) using complete nuclear receptor buffer K. Add 6 μL 2× Fluormone ES2 green tracer into a compound plate (PerkinElmer 6008289) by dragonfly with one-tips-addition. Subsequently, add 6 μL 2× protein solution into the plate. Briefly and gently mix the 384-well plate on a plate shaker and incubate at room temperature protected from light for 60 min. The plate is sealed with a cover to minimize evaporation. Read the plate at wavelengths of 520 nm and 495 nm. Calculate the TR-FRET ratio by dividing the emission signal at 520 nm by the emission signal at 495 nm. Generate a binding curve by plotting the emission ratio vs. the log [ligand]. To determine the IC50 value, fit the data using XL-fit for a sigmoidal dose-response.
# [2] = target: ER in MCF-7 cells (Homo sapiens (Human), UniProt P03372); test: In-cell western (ICW) ER degradation assay in MCF-7 cells (Compounds A1-A70); type: cell-based; settings: for DC50: ER degradation, 0.02 to 300 nM, read-out: MCF7 ICW DC50; for MCF7 ICW Dmax (%): maximal ER degradation
# Chain of ER in MCF-7 cells (P03372 whole entry): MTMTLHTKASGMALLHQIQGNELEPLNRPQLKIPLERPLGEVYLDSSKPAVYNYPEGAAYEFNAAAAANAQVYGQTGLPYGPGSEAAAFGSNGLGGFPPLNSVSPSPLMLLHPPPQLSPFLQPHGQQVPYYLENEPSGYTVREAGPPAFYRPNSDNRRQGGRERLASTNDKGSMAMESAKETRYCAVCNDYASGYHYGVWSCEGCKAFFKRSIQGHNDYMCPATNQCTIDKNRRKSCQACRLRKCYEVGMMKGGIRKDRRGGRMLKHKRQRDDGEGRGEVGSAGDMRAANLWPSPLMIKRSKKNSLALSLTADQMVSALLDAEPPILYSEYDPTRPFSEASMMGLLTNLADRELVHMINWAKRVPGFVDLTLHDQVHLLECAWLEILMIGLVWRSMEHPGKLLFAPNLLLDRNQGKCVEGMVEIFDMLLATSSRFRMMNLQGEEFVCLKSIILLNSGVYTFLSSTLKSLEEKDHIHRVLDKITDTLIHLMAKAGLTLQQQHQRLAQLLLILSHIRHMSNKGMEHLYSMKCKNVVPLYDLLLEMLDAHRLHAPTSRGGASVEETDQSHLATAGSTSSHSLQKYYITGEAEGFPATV
# [3] = target: CRBN/DDB1 (Homo sapiens (Human), UniProt Q96SW2); type: binding; settings: His tagged CRBN+DDB-DLS7+CXU4, Cy5-labeled Thalidomide probe, one hour incubation; read-out: CRBN HTRF IC50
# Chain of CRBN/DDB1 (Q96SW2 whole entry): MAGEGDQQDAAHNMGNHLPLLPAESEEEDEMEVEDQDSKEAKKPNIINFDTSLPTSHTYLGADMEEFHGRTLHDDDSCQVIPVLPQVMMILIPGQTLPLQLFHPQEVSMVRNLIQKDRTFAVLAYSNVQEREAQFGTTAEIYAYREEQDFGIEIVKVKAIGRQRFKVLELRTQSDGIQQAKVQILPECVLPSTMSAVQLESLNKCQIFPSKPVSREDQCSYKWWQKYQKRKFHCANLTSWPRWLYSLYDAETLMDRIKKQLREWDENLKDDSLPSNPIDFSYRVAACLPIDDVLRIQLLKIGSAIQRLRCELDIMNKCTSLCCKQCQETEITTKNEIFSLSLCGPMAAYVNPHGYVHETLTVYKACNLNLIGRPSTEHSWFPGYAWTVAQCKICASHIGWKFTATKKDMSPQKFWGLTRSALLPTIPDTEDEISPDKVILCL
# Chain of CRBN/DDB1 (Q16531 whole entry partner): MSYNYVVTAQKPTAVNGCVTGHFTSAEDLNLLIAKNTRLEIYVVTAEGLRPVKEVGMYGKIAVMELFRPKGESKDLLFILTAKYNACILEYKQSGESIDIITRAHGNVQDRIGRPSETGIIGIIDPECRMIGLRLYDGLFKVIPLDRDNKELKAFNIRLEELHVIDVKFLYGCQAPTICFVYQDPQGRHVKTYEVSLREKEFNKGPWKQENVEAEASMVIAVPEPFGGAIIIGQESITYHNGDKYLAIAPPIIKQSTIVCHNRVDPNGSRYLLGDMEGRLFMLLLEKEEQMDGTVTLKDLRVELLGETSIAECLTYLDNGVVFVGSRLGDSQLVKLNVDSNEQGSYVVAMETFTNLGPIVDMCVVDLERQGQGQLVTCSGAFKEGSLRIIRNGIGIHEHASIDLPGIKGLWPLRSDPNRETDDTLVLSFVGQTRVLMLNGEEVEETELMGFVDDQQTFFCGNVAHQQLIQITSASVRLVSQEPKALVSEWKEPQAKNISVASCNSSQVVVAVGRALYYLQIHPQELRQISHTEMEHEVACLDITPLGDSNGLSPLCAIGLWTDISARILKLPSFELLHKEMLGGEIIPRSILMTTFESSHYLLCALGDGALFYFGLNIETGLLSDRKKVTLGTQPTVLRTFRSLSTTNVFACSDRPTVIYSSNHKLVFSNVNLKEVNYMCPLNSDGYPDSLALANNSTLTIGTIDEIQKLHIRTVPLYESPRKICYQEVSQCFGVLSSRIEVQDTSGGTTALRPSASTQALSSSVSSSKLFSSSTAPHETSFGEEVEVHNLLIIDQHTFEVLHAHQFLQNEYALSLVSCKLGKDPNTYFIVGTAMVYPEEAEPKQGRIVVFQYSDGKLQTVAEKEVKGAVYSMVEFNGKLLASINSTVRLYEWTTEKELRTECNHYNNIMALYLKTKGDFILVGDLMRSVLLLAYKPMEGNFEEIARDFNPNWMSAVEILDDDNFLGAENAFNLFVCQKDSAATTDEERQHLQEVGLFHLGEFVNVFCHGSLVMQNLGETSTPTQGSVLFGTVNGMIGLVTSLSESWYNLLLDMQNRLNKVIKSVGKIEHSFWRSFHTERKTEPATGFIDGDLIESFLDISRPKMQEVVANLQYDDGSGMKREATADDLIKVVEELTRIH
# Method: The binding potency was determined using H-TRF assay technology (Perkin Elmer). Compounds were serially diluted in DMSO and 0.2 μL volume was transferred to white 384-well plate.
# [4] = target: ER in T47D cells (Homo sapiens (Human), UniProt P03372); test: In-cell western (ICW) ER degradation assay in T47D cells (Compounds A1-A70); type: cell-based; settings: for DC50: ER degradation, 0.02 to 300 nM; for Dmax: T47D, read-out: T47D ICW Dmax (%)
# Chain of ER in T47D cells (P03372 whole entry): as the sequence (P03372 whole entry) above
# [5] = MCF7, maximal ER degradation, MCF-7 cells, 16 hrs treatment, read-out: MCF7 ICW Dmax (%)
# [6] = maximal ER degradation, T47D cells, 16 hrs treatment
# [7] = MCF7, read-out: MCF7 ICW Dmax (%)
# Chain of ERα_LBD(GST) (P03372 311-547): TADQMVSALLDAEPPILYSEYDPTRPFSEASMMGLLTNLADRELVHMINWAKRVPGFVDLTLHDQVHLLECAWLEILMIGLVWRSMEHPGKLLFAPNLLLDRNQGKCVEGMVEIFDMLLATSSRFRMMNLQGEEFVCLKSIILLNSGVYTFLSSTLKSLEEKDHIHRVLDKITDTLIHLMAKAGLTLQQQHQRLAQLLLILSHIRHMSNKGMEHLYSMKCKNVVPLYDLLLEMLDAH
Structure (SMILES),IC50 [1],"DC50 ([2]; MCF-7 cells, 16 hrs treatment)","MCF7 ICW Dmax (%) ([2]; MCF-7 cells, 16 hrs treatment)",IC50 [3],"Dmax [2, 5]","DC50 ([4]; T47D cells, 16 hrs treatment)","T47D ICW Dmax (%) [4, 6]","Dmax [2, 7]",Dmax [4],"Dmax [4, 6]"
"COc1cc(N2CCC(CN3CCN4c5ccc6c(c5OC[C@@H]4C3)CN([C@H]3CCC(=O)NC3=O)C6=O)CC2)ccc1[C@@H]1c2[nH]c3ccccc3c2C[C@@H](C)N1CC(F)F [Compound A12, (S)-3-((S)-7-((1-(4-((1R,3R)-2-(2,2-difluoroethyl)-3-methyl-2,3,4,9-tetrahydro-1H-pyrido[3,4-b]indol-1-yl)-3-methoxyphenyl)piperidin-4-yl)methyl)-1-oxo-1,3,5,5a,6,7,8,9-octahydro-2H-pyrazino[1′,2′:4,5][1,4]oxazino[2,3-e]isoindol-2-yl)piperidine-2,6-dione]",< 10 nM,< 1 nM,B (“B”: >50% and <75%),–,–,–,–,–,–,–
"COc1cc(N2CCC(CN3CCN4c5ccc6c(c5OC[C@H]4C3)CN([C@H]3CCC(=O)NC3=O)C6=O)CC2)ccc1[C@@H]1c2[nH]c3ccccc3c2C[C@@H](C)N1CC(F)F [Compound A19, (S)-3-((R)-7-((1-(4-((1R,3R)-2-(2,2-difluoroethyl)-3-methyl-2,3,4,9-tetrahydro-1H-pyrido[3,4-b]indol-1-yl)-3-methoxyphenyl)piperidin-4-yl)methyl)-1-oxo-1,3,5,5a,6,7,8,9-octahydro-2H-pyrazino[1′,2′:4,5][1,4]oxazino[2,3-c]isoindol-2-yl)piperidine-2,6-dione]",< 10 nM,1 to 10 nM,–,50 to 500 nM,50 to 75%,–,–,–,–,–
"COc1cc(N2CCC(CN3CCN4c5cc6c(cc5OC[C@@H]4C3)C(=O)N([C@H]3CCC(=O)NC3=O)C6)CC2)ccc1[C@@H]1c2[nH]c3ccccc3c2C[C@@H](C)N1CC(F)F [Compound A28, (S)-3-((S)-3-((1-(4-((1R,3R)-2-(2,2-difluoroethyl)-3-methyl-2,3,4,9-tetrahydro-1H-pyrido[3,4-b]indol-1-yl)-3-methoxyphenyl)piperidin-4-yl)methyl)-8-oxo-1,2,3,4,4a,5,8,10-octahydro-9H-pyrazino[1′,2′:4,5][1,4]oxazino[2,3-f]isoindol-9-yl)piperidine-2,6-dione]",< 10 nM,< 1 nM,C (“C”: 25%-50%),50 to 500 nM,–,< 1 nM,B (“B”: >50% and <75%),–,–,–
"COc1cc(N2CCC(CN3CCN4c5ccc6c(c5OC[C@H]4C3)CN([C@H]3CCC(=O)NC3=O)C6=O)CC2)ccc1[C@@H]1c2[nH]c3ccccc3c2C[C@@H](C)N1CC(C)(C)F [Compound A49, (S)-3-((R)-7-((1-(4-((1R,3R)-2-(2-fluoro-2-methylpropyl)-3-methyl-2,3,4,9-tetrahydro-1H-pyrido[3,4-b]indol-1-yl)-3-methoxyphenyl)piperidin-4-yl)methyl)-1-oxo-1,3,5,5a,6,7,8,9-octahydro-2H-pyrazino[1′,2′:4,5][1,4]oxazino[2,3-e]isoindol-2-yl)piperidine-2,6-dione]",≥ 10 nM,< 1 nM,–,–,–,< 1 nM,–,> 75%,50 to 75%,–
"COc1cc(N2CCC(CN3CCN(c4ccc(C(=O)N[C@H]5CCC(=O)NC5=O)nc4)CC3)CC2)ccc1[C@@H]1c2[nH]c3ccccc3c2C[C@@H](C)N1CC(F)F [Compound A55, 5-(4-((1-(4-((1R,3R)-2-(2,2-difluoroethyl)-3-methyl-2,3,4,9-tetrahydro-1H-pyrido[3,4-b]indol-1-yl)-3-methoxyphenyl)piperidin-4-yl)methyl)piperazin-1-yl)-N—((S)-2,6-dioxopiperidin-3-yl)picolinamide]",< 10 nM,< 1 nM,–,> 5000 nM,–,–,–,–,–,–
"C[C@H]1Cc2c([nH]c3ccccc23)[C@H](c2cnc(N3CCC4(CC3)C[C@@H](CN3CCN5c6ccc7c(c6OC[C@@H]5C3)CN([C@@H]3CCC(=O)NC3=O)C7=O)CO4)nc2)N1CC(F)F [Compound A59, (R)-3-((S)-7-(((S)-8-(5-((1S,3S)-2-(2,2-difluoroethyl)-3-methyl-2,3,4,9-tetrahydro-1H-pyrido[3,4-b]indol-1-yl)pyrimidin-2-yl)-1-oxa-8-azaspiro[4.5]decan-3-yl)methyl)-1-oxo-1,3,5,5a,6,7,8,9-octahydro-2H-pyrazino[1′,2′:4,5][1,4]oxazino[2,3-e]isoindol-2-yl)piperidine-2,6-dione formate]",≥ 10 nM,< 1 nM,–,–,–,< 1 nM,–,50 to 75%,–,50 to 75%
"C[C@H]1Cc2c([nH]c3ccccc23)[C@H](c2cnc(N3CCC4(CC3)C[C@@H](CN3CCN5c6cc7c(cc6OC[C@H]5C3)C(=O)N([C@@H]3CCC(=O)NC3=O)C7)CO4)nc2)N1CC(F)F [Compound A61, (R)-3-((R)-3-(((S)-8-(5-((1S,3S)-2-(2,2-difluoroethyl)-3-methyl-2,3,4,9-tetrahydro-1H-pyrido[3,4-b]indol-1-yl)pyrimidin-2-yl)-1-oxa-8-azaspiro[4.5]decan-3-yl)methyl)-8-oxo-1,2,3,4,4a,5,8,10-octahydro-9H-pyrazino[1′,2′:4,5][1,4]oxazino[2,3-f]isoindol-9-yl)piperidine-2,6-dione]",≥ 10 nM,< 1 nM,–,–,–,< 1 nM,–,50 to 75%,–,50 to 75%
"C[C@@H]1Cc2c([nH]c3ccccc23)[C@H](c2cnc(N3CCC4(CC3)C[C@@H](CN3CCN5c6ccc(C(=O)N[C@H]7CCC(=O)NC7=O)nc6OC[C@H]5C3)CO4)nc2)N1CC(F)F [Compound A65, (R)-3-(((S)-8-(5-((1S,3R)-2-(2,2-difluoroethyl)-3-methyl-2,3,4,9-tetrahydro-1H-pyrido[3,4-b]indol-1-yl)pyrimidin-2-yl)-1-oxa-8-azaspiro[4.5]decan-3-yl)methyl)-N-((S)-2,6-dioxopiperidin-3-yl)-1,2,3,4,4a,5-hexahydropyrazino[1,2-d]pyrido[2,3-b][1,4]oxazine-8-carboxamide]",–,1 to 10 nM,–,50 to 500 nM,50 to 75%,1 to 10 nM,–,–,–,50 to 75%
"C[C@H]1Cc2c([nH]c3ccccc23)[C@H](c2cnc(N3CCC4(CC3)C[C@@H](CN3CCC(c5ccc(N[C@@H]6CCC(=O)NC6=O)cc5)CC3)CO4)nc2)N1CC(F)F [Compound A66, (R)-3-((4-(1-(((S)-8-(5-((1S,3S)-2-(2,2-difluoroethyl)-3-methyl-2,3,4,9-tetrahydro-1H-pyrido[3,4-b]indol-1-yl)pyrimidin-2-yl)-1-oxa-8-azaspiro[4.5]decan-3-yl)methyl)piperidin-4-yl)phenyl)amino)piperidine-2,6-dione]",–,< 1 nM,–,50 to 500 nM,50 to 75%,1 to 10 nM,–,–,–,> 75%
"C[C@H]1Cc2c([nH]c3ccccc23)[C@H](c2cnc(N3CCC4(CC3)C[C@H](CN3CCC(c5ccc(N[C@H]6CCC(=O)NC6=O)cc5)CC3)CO4)nc2)N1CC(F)F [Compound A67, (S)-3-((4-(1-(((R)-8-(5-((1S,3S)-2-(2,2-difluoroethyl)-3-methyl-2,3,4,9-tetrahydro-1H-pyrido[3,4-b]indol-1-yl)pyrimidin-2-yl)-1-oxa-8-azaspiro[4.5]decan-3-yl)methyl)piperidin-4-yl)phenyl)amino)piperidine-2,6-dione]",–,< 1 nM,–,500 to 5000 nM,50 to 75%,< 1 nM,–,–,–,50 to 75%
"C[C@@H]1Cc2c([nH]c3ccccc23)[C@@H](c2cnc(N3CCC4(CC3)C[C@@H](CN3CCC(c5ccc(N[C@@H]6CCC(=O)NC6=O)cc5)CC3)CO4)nc2)N1CC(F)F [Compound A70, (3R)-3-((4-(1-((8-(5-((1R,3R)-2-(2,2-difluoroethyl)-3-methyl-2,3,4,9-tetrahydro-1H-pyrido[3,4-b]indol-1-yl)pyrimidin-2-yl)-1-oxa-8-azaspiro[4.5]decan-3-yl)methyl)piperidin-4-yl)phenyl)amino)piperidine-2,6-dione]",< 10 nM,< 1 nM,–,–,50 to 75%,< 1 nM,–,–,–,> 75%
